According to EP1561465A2, “Methods of use of fluoroquinolone compounds against bacteria” (LG Life Sciences, Ltd., priority 1999, dated 2001):
In brackets after ≈: the same amount, converted by molar mass. Like-named read-outs stand apart in the source and are kept apart here.

Columns and labels:
[1] = tested on: Yersinia enterocolitica; experiment: MIC by agar dilution (NCCLS M7-A4), 288 enteropathogenic isolates, gemifloxacin and 15 other antimicrobials; assay type: cell-based; conditions: for % Susceptible / MIC (mg/L) 50% / MIC (mg/L) 90% / MIC (mg/L) Range / MIC: Yersinia enterocolitica N= 22
[2] = tested on: Hafnia alvei; experiment: as above; assay type: cell-based; conditions: for % Susceptible / MIC (mg/L) 50% / MIC (mg/L) 90% / MIC (mg/L) Range / MIC: Hafnia alvei N= 32
[3] = tested on: Aeromonas spp.; experiment: as above; assay type: cell-based; conditions: for % Susceptible / MIC (mg/L) 50% / MIC (mg/L) 90% / MIC (mg/L) Range / MIC: Aeromonas spp. N= 16
[4] = tested on: Campylobacter jejuni; experiment: as above; conditions: for % Susceptible / MIC (mg/L) 50% / MIC (mg/L) 90% / MIC (mg/L) Range: Campylobacter jejuni N= 91; for MIC: Campylobacter jejuni
[5] = tested on: Salmonella spp.; experiment: as above; assay type: cell-based; conditions: for % Susceptible / MIC (mg/L) 50% / MIC (mg/L) 90% / MIC (mg/L) Range: Salmonella spp. N= 106; for susceptible isolates: breakpoints; for MIC: Salmonella
[6] = tested on: Shigella spp.; experiment: as above; assay type: cell-based; conditions: for % Susceptible / MIC (mg/L) 50% / MIC (mg/L) 90% / MIC (mg/L) Range / MIC: Shigella spp. N= 21
Procedure: [A. hydrophila (12), and A. sobria (4)], and 91 Campylobacter jejuni. […] The strains were stored in skimmed-milk at -80 °C until studied.
The plates were incubated aerobically at 35 °C for 24 h, except for Campylobacter jejuni, where a microaerophilic atmosphere was obtained by using Campy Pack (Becton Dickinson, Cockeysville, MD, USA), and incubation was for 48 h. All organisms were tested with an inoculum of ≅ 10^4 cfu/spot. MICs were defined as the lower antibiotic concentration with no visible growth.

[7] = tested on: Enterobacter spp.; experiment: MIC by agar dilution (NCCLS), 322 nosocomial Gram negative isolates, Athens 1998; assay type: cell-based
[8] = 24 h, read-out: MIC (mg/L) Range

For colistin, the “% Susceptible” value [1] was 100%, the “MIC (mg/L) 50%” value [1] was 1 mg/L and the “MIC (mg/L) 90%” value [1] was 1 mg/L. The “MIC (mg/L) Range” value [1] was 0.5 to 1 mg/L, the “% Susceptible” value [2] was 6% and the “MIC (mg/L) 50%” value [2] was 8 mg/L. For the same compound, the “MIC (mg/L) 90%” value [2] was 16 mg/L, the “MIC (mg/L) Range” value [2] was 0.5 to 16 mg/L and the “% Susceptible” value [3] was 81%. The “MIC (mg/L) 50%” value [3] was 2 mg/L, the “MIC (mg/L) 90%” value [3] was 4 mg/L and the “MIC (mg/L) Range” value [3] was 0.25 to 32 mg/L. The “% Susceptible” value [4] was 3%, the “MIC (mg/L) 50%” value [4] was 4 mg/L and the “MIC (mg/L) 90%” value [4] was 8 mg/L. The “MIC (mg/L) Range” value [4] was 1 to 32 mg/L, the “% Susceptible” value [5] was 32% and the “MIC (mg/L) 50%” value [5] was 8 mg/L. The “MIC (mg/L) 90%” value [5] was 8 mg/L, the susceptible isolates ([5]; Salmonella spp.) was 32% and the “% Susceptible” value [6] was 100%. For the same compound, the “MIC (mg/L) 50%” value [6] was 0.25 mg/L, the “MIC (mg/L) 90%” value [6] was 0.25 mg/L and the “MIC (mg/L) Range” value [6] was 0.25 mg/L.

With `CC(C)(O/N=C(\C(=O)N[C@@H]1C(=O)N2C(C(=O)[O-])=C(C[n+]3ccccc3)CS[C@H]12)c1csc(N)n1)C(=O)O` [Cetfazidime] the MIC50 ([7]; Enterobacter) was 1 µg/mL, the MIC90 ([7]; Enterobacter) was > 64 µg/mL and the “MIC distribution (µg/ml) 0.06” value ([7]; {}) was 1. The “MIC distribution (µg/ml) 0.25” value ([7]; {}) was 16, the “MIC distribution (µg/ml) 0.5” value ([7]; {}) was 3 and the “MIC distribution (µg/ml) 1” value ([7]; {}) was 2. The “MIC distribution (µg/ml) 2” value ([7]; {}) was 1, the “MIC distribution (µg/ml) 4” value ([7]; {}) was 0 and the “MIC distribution (µg/ml) 8” value ([7]; {}) was 2. The “MIC distribution (µg/ml) 16” value ([7]; {}) was 6, the “MIC distribution (μg/ml) 32” value ([7]; {}) was 3 and the “MIC distribution (μg/ml) 64” value ([7]; {}) was 2.

In the case of gentamicin, the “% Susceptible” value [1] is reported as 100%, the “MIC (mg/L) 50%” value [1] is reported as 1 mg/L and the “MIC (mg/L) 90%” value [1] is reported as 1 mg/L. The “MIC (mg/L) Range” value [1] was 0.5 to 1 mg/L, the “% Susceptible” value [2] was 100% and the “MIC (mg/L) 50%” value [2] was 0.25 mg/L. For the same compound, the “MIC (mg/L) 90%” value [2] was 0.5 mg/L, the “MIC (mg/L) Range” value [2] was 0.25 to 0.5 mg/L and the “% Susceptible” value [3] was 100%. For the same compound, the “MIC (mg/L) 50%” value [3] was 0.5 mg/L, the “MIC (mg/L) 90%” value [3] was 1 mg/L and the “MIC (mg/L) Range” value [3] was 0.25 to 1 mg/L. For the same compound, the “% Susceptible” value [4] was 100%, the “MIC (mg/L) 50%” value [4] was 0.25 mg/L and the “MIC (mg/L) 90%” value [4] was 0.5 mg/L. For the same compound, the “MIC (mg/L) Range” value [4] was 0.12 to 1 mg/L, the isolates being resistant ([5]; Salmonella spp.) was 4% and the “% Susceptible” value [5] was 96%. For the same compound, the “MIC (mg/L) 50%” value [5] was 0.25 mg/L, the “MIC (mg/L) 90%” value [5] was 0.5 mg/L and the “MIC (mg/L) Range” value [5] was 0.12 to 128 mg/L. For the same compound, the “% Susceptible” value [6] was 100%, the “MIC (mg/L) 50%” value [6] was 1 mg/L and the “MIC (mg/L) 90%” value [6] was 1 mg/L. For the same compound, the “MIC (mg/L) Range” value [6] was 0.5 to 1 mg/L.

Compound `CO/N=C(\C(=O)N[C@@H]1C(=O)N2C(C(=O)O)=C(COC(C)=O)CS[C@H]12)c1csc(N)n1` [Cefotaxime, cefotaxime] has an MIC [1, 8] of 0.06 to 0.12 mg/L (≈ 0.132 to 0.263 µM), a susceptible isolates ([1]; Yersinia enterocolitica, breakpoints) of 100% and an MIC ([1]; read-out: MIC (mg/L) 50%) of 0.06 mg/L (≈ 0.132 µM). It also gave an MIC ([1]; read-out: MIC (mg/L) 90%) of 0.06 mg/L (≈ 0.132 µM), an MIC [2, 8] of 0.12 to 0.5 mg/L (≈ 0.263 to 1.1 µM) and a susceptible isolates ([2]; Hafnia alvei, breakpoints) of 100%. The MIC ([2]; read-out: MIC (mg/L) 50%) was 0.25 mg/L (≈ 0.549 µM), the MIC ([2]; read-out: MIC (mg/L) 90%) was 0.5 mg/L (≈ 1.1 µM) and the “MIC (mg/L) Range” value [3] was ≤0.015 to 0.12 mg/L. The susceptible isolates ([3]; Aeromonas spp., breakpoints) was 100%, the MIC ([3]; read-out: MIC (mg/L) 50%) was 0.03 mg/L (≈ 0.0659 µM) and the MIC ([3]; read-out: MIC (mg/L) 90%) was 0.12 mg/L (≈ 0.263 µM). The susceptible isolates ([4]; C. jejuni, breakpoints) was 57%, the “MIC (mg/L) Range” value [4] was 2 to 32 mg/L and the MIC ([4]; read-out: MIC (mg/L) 50%) was 8 mg/L (≈ 17.6 µM). For the same compound, the MIC ([4]; read-out: MIC (mg/L) 90%) was 16 mg/L (≈ 35.1 µM), the “MIC (mg/L) Range” value [5] was 0.06 to 0.5 mg/L and the susceptible isolates ([5]; Salmonella spp.) was 100%. The MIC ([5]; read-out: MIC (mg/L) 50%, Salmonella spp. N= 106) was 0.12 mg/L (≈ 0.263 µM), the MIC ([5]; read-out: MIC (mg/L) 90%, Salmonella spp. N= 106) was 0.12 mg/L (≈ 0.263 µM) and the MIC [6, 8] was 0.015 to 0.03 mg/L (≈ 0.0329 to 0.0659 µM). For the same compound, the susceptible isolates ([6]; Shigella spp., breakpoints) was 100%, the MIC ([6]; read-out: MIC (mg/L) 50%) was ≤ 0.015 mg/L and the MIC ([6]; read-out: MIC (mg/L) 90%) was 0.03 mg/L (≈ 0.0659 µM).
